Laboratory results taken from patent US11554182B2, “Macrocyclic complexes of alpha-emitting radionuclides and their use in targeted radiotherapy of cancer” (CORNELL UNIVERSITY, priority 2017, dated 2023).

Legend:
[1] = La^3+ titration with macropa (UV, pH 7.4); assay type: physicochemical; conditions: pH 7.4, MOPS buffer, RT
Protocol: (§1) La^3+ and Lu^3+ Titrations with Macropa. The pH of a 10 mM 3-(N-morpholino)propanesulfonic acid (MOPS) buffer was adjusted to 7.4 using aqueous NMe4OH. The ionic strength was set at 100 mM using NMe4Cl. Stock solutions of LaCl3.6.8H2O (40 mM) and LuCl3.6H2O (21 mM) were prepared in 1 mM HCl. A stock solution of H2macropa.2HCl.4H2O (8.8 mM) was prepared in MOPS buffer. From these stock solutions, titration solutions containing macropa (100 μM) and either LaCl3 or LuCl3 were prepared in MOPS. Each metal ion titration was carried out at RT by adding 5-10 μL aliquots of titrant to a cuvette containing 3000 μL of macropa (100 μM) in MOPS. Each sample was allowed to equilibrate for 5 min following every addition before a spectrum was acquired. Complexation of the metal ion was monitored by the decrease in absorbance at 268 nm, the λmax of macropa. Titrant was added until no further spectral changes were detected.

[2] = La^3+ complex of macropa; cited from earlier work
[3] = Lu^3+ titration with macropa (UV, pH 7.4); assay type: physicochemical; conditions: pH 7.4, MOPS buffer, RT
Protocol: as §1

[4] = Lu^3+ complex of macropa; cited from earlier work

O=C(O)c1cccc(CN2CCOCCOCCN(Cc3cccc(C(=O)O)n3)CCOCCOCC2)n1 [macropa, N,N′-bis[(6-carboxy-2-pyridil)methyl]-4,13-diaza-18-crown-6]
affinity of La^3+ for macropa by titration [1]: high affinity | stability constant log KLaL [2]: 14.99 | affinity of Lu^3+ for macropa by titration [3]: high affinity | stability constant log KLuL [4]: 8.25
